Test results published in patent US10925890B2, “Use of dextran sulfate” (TX MEDIC AB, priority 2014, dated 2021).

What was measured:
[1] = test system: Rat Hind-Limb Ischemia Model; experiment: In vivo assessment of limb function, rat hind-limb ischemia; conditions: for Incidence of limb function score 0 / Incidence of limb function score 1 / Incidence of limb function score 2 / Incidence of limb function score 3: Day 28
Procedure: The femoral artery and vein were ligated twice with 4-0 silk thread and transected between the ligatures. The wound was closed with 3-0 silk thread and the rats were allowed to recover.
Animals in group 4M and 5M were injected s.c. once on Day 8, see Table 12.
Semi-quantitative assessment of impaired use of the ischemic limb was performed once a week post-surgery using the scale presented in Table 7. Scoring was performed by personnel blinded to the treatment.

[2] = test system: Critical Hind-Limb Ischemia Mouse Model; experiment: Macroscopic evaluation of ischemic severity (necrosis grades), mouse hind-limb ischemia
Description: On the day of surgery anesthesia was induced by 1.5 to 3.0% isoflurane, 1.5% N2O and 0.5% O2. Under anesthesia, the mice were placed with ventral side up. A 0.5-1.0 cm incision was made in the skin in the inguinal area. The femoral artery was ligated proximally just after the distal part of the iliac artery and distally after its bifurcation with profound femoral artery with 6-0 silk thread, transected and excised between two ligatures. The wound was closed with 4-0 silk thread and the mice were allowed to recover.
On day 8, week 2 post-surgery, each animal in groups 2M and 3M were injected dextran sulfate solution s.c. three times a week.

tMCAO rat-stroke model [3] = experiment: Neurological test score (Neuroscore, mNRS), tMCAO rat; assay type: in vivo; conditions: groups 2M (30 mg/kg 3 times per week) and 3M (daily); day 7 up to day 28
Procedure: Transient middle cerebral artery occlusion was performed according to the method previously described in Stroke 29, 2162-2170 (1998). The right common carotid artery (CCA) was exposed through a midline neck incision and carefully dissected free from surrounding nerves and fascia—from its bifurcation to the base of the skull. The occipital artery branches of the external carotid artery (ECA) were then isolated, and these branches were dissected and coagulated. The ECA was dissected further distally and coagulated along with the terminal lingual and maxillary artery branches, which was then divided. The internal carotid artery (ICA) was isolated and carefully separated from the adjacent vagus nerve, and the pterygopalatine artery was ligated close to its origin with a 5-0 nylon suture (SMI, Belgium). Next a 4-0 silk suture was tied loosely around the mobilized ECA stump, and a 4 cm length of 4-0 monofilament nylon suture (the tip of the suture was blunted by using a flame, and the suture was coated with polylysine, prior to insertion) was inserted through the proximal ECA into the ICA and thence into the circle of Willis, effectively occluding the MCA. The surgical wound was closed and the animals were returned to their cages to recover from anesthesia. […]

tMCAO rat-stroke model [4] = experiment: Stepping test, tMCAO rat; assay type: in vivo; conditions: groups 2M and 3M; from day 7 to day 28
Procedure: Transient middle cerebral artery occlusion was performed according to the method previously described in Stroke 29, 2162-2170 (1998). The right common carotid artery (CCA) was exposed through a midline neck incision and carefully dissected free from surrounding nerves and fascia—from its bifurcation to the base of the skull. The occipital artery branches of the external carotid artery (ECA) were then isolated, and these branches were dissected and coagulated. The ECA was dissected further distally and coagulated along with the terminal lingual and maxillary artery branches, which was then divided. The internal carotid artery (ICA) was isolated and carefully separated from the adjacent vagus nerve, and the pterygopalatine artery was ligated close to its origin with a 5-0 nylon suture (SMI, Belgium). […]
Animals were tested for forelimb akinesia using the stepping test. […] The number of adjusting steps were counted while the animal was moved sideways along the table surface (85 cm in approximately five seconds), in the forehand and backhand direction for both forelimbs.

[5] = Adverse effects / general health, mouse hind-limb ischemia study; assay type: in vivo; conditions: 10 or 30 mg/kg s.c., up to day 35
Procedure: The collective data of the study confirmed the therapeutic efficacy of dextran sulfate given s.c. for the treatment of occlusive peripheral arterial disease in the Balb/c mouse animal model.
No adverse effect on general health was recorded in any of the groups. […] The findings reflect changes in blood vessel morphology, i.e. capillaries density increase, and blood vessels angiogenesis.

[6] = Body weight, mouse critical limb ischemia study; assay type: in vivo
Description: In total 60 male Balb/c mice, 9 weeks old, having an average body weight of 24.7 g at study initiation (day 0) were obtained from Harlan Laboratories, Israel. The minimal and maximal weight recorded in each group was within the range of ±20% of the group mean. Animals were handled according to the National Institute of Health (NIH) and the Association for Assessment and Accreditation of Laboratory Animal Care (AAALAC). Animals were housed in polysufone (PSU) cages (5/cage) measuring […], with stainless steel top grill having facilities for pelleted food and drinking water in glass-clear polycarbonate bottle; bedding: steam sterilized clean paddy husk (Harlan, Sani-chip, Cat #: 106S8216) was used and bedding material was changed along with the cage at least twice a week. Animals were fed ad libitum a commercial rodent diet (Teklad Certified Global 18% Protein Diet cat #: 106S8216). Animals had free access to autoclaved and acidified drinking water (pH between 2.5 and 3.5) obtained from the municipality supply. Animals were housed under standard laboratory conditions, air conditioned and filtered (HEPA F6/6) with adequate fresh air supply (minimum 15 air changes/hour). Animals were kept in a climate controlled environment. Temperatures range was 20-24° C. and RH range was 30-70% with 12 hours light and 12 hours dark cycle.
Body weight was measured on study day −1 prior to surgery and once a week thereafter. […] From day 14 onwards a gradual increase in weight was observed. Accordingly, between day 0 and day 35 the mean increase in body weight ranged between 0.4 g to 1.7 g, see Table 2.

[7] = test system: Rat Hind-Limb Ischemia Model; experiment: Angiography analysis, rat hind-limb ischemia; assay type: in vivo; conditions: 28 days after induction of hind-limb ischemia; p<0.01 and p<0.001
Procedure: The number of intersections between contrast-filled vessels was determined by image analysis 28 days after induction of hind-limb ischemia.

[8] = group 2M, 30 mg/kg s.c. 3 times a week
[9] = group 3M, 30 mg/kg (as printed in Table 12) s.c. 3 times a week
[10] = group 4M, 30 mg/kg s.c. administered once
[11] = group 5M, 3 mg/kg s.c. administered once
[12] = day 7 (before treatment start day 8), group 2M, 10 mg/kg 3 times/week
[13] = day 7 (before treatment start day 8), group 3M, 30 mg/kg 3 times/week
[14] = day 7 (before treatment start day 8), group 4M, 30 mg/kg 1 time/week

Substance: Dextran sulfate
- Incidence of limb function score 0 [1, 8]: 100%
- Incidence of limb function score 1 [1, 8]: 0%
- Incidence of limb function score 2 [1, 8]: 0%
- Incidence of limb function score 3 [1, 8]: 0%
- Incidence of limb function score 0 [1, 9]: 88%
- Incidence of limb function score 1 [1, 9]: 12%
- Incidence of limb function score 2 [1, 9]: 0%
- Incidence of limb function score 3 [1, 9]: 0%
- Incidence of limb function score 0 [1, 10]: 100%
- Incidence of limb function score 1 [1, 10]: 0%
- Incidence of limb function score 2 [1, 10]: 0%
- Incidence of limb function score 3 [1, 10]: 0%
- Incidence of limb function score 0 [1, 11]: 94%
- Incidence of limb function score 1 [1, 11]: 6%
- Incidence of limb function score 2 [1, 11]: 0%
- Incidence of limb function score 3 [1, 11]: 0%
- Limb function score, treated groups vs control ([1]; groups 2M, 3M, 4M and 5M vs 1M, Day 14 through Day 28): statistically significant differences
- Incidence of mice with limb amputation [2, 12]: 0.0%
- Incidence of mice with toe necrosis [2, 12]: 0.0%
- Incidence of mice with limb amputation [2, 13]: 0.0%
- Incidence of mice with toe necrosis [2, 13]: 0.0%
- Incidence of mice with limb amputation [2, 14]: 0.0%
- Incidence of mice with toe necrosis [2, 14]: 0.0%
- Incidence of mice with limb amputation ([2]; day 35, group 2M, 10 mg/kg s.c. 3 times/week, vehicle 15.4): 0.0%
- Incidence of mice with toe necrosis ([2]; day 35, group 2M, 10 mg/kg s.c. 3 times/week, vehicle 23.1): 21.4%
- Incidence of mice with limb amputation ([2]; day 35, group 3M, 30 mg/kg s.c. 3 times/week, vehicle 15.4): 0.0%
- Incidence of mice with toe necrosis ([2]; day 35, group 3M, 30 mg/kg s.c. 3 times/week, vehicle 23.1): 14.3%
- Incidence of mice with limb amputation ([2]; day 35, group 4M, 30 mg/kg s.c. 1 time/week, vehicle 15.4): 7.1%
- Neuroscore (0-18) compared to vehicle treated control (tMCAO rat-stroke model [3]): Statistically significant differences
- Stepping test, functional improvement compared to control (tMCAO rat-stroke model [4]): improvement reached statistical significance
- Adverse effects in the treated animals [5]: did not cause any adverse effects
- Mean weight change from day 0 to day 35 ([6]; group 2M, 10 mg/kg s.c. 3 times/week from day 8): 1.0 g
- Mean weight change from day 0 to day 35 ([6]; group 3M, 30 mg/kg s.c. 3 times/week from day 8): 1.7 g
- Mean weight change from day 0 to day 35 ([6]; group 4M, 30 mg/kg s.c. 1 time/week from day 8): 1.0 g
- Mean body weight, differences between the groups ([6]; throughout the study, two-way ANOVA, Bonferroni): no statistically significant differences
- Angiography: collaterals in affected limb vs vehicle control [7]: significantly large numbers of collaterals
